Reference: patent publication EP0462123B1, “UV-ABSORBING COMPOUNDS AND COMPOSITIONS” (AUSTRALIAN INSTITUTE OF MARINE SCIENCE, priority 1989, dated 1990)

Experiments:
[1] = E1%: relative UV absorbance of a 1% w/w solution; format: physicochemical; details: relative measure of the UV absorbance of a 1% w/w solution of the compound
Excerpt: This example compares the ultraviolet light absorbing properties and water resistance properties of compounds of the invention.
E1% is a relative measure of the UV absorbance of a 1% w/w solution of the compound.

[2] = log P (octanol/water partition coefficient) by HPLC method of Leahy, Taylor and Wait; format: physicochemical; details: octanol in conjunction with water
Excerpt: Water resistance of compounds of formula I may be evaluated by reference to the partition coefficient of the compounds using a non-polar solvent such as octanol in conjunction with water. The term log P, where P is the partition coefficient, where used herein refers to the log P value determined by the HPLC method of David E Leahy, Peter J Taylor and Alan R Wait, Ouant. Struct.-Act Relat., 8, 17-31 (1989) at pages 23 and 24. Log P may be used to directly compare the lipophilicity of a variety of molecules as described by Hansch, C., and Leo, A. J., Substituent Constants for Correlation Analysis in Chemistry and Biology, John Wiley, New York 1979.
Struct. Act Relat., 8, 17-31 (1989) and the results are recorded in Table 6.

| E1% [1] | chromatographic logP [2] | Structure (SMILES) |
| --- | --- | --- |
| 105 | 5.3 | CCCCCCCC(=O)C1=CN(C(C)C)CCC1(C)C [Compound 23, 1-(1-Methylethyl)-3-octanoyl-4,4-dimethyl-1,4,5,6-tetrahydropyridine] |
| 91 | 6.9 | CCCCCCCCCC(=O)C1=CN(CC(C)C)CCC1(C)C [Compound 16, 1-(2-Methylpropyl) -3-decanoyl--4,4-dimethyl-1,4,5,6-tetrahydropyridine] |
| 91 | 6.9 | CCCCCCCCCC(=O)C1=CN(C(C)(C)C)CCC1(C)C [Compound 20, 1-(1,1-Dimethyl-ethyl)-3-decanoyl--4,4-dimethyl-1,4,5,6-tetrahydropyridine] |
| 105 | 5.3 | CCCCC(CC)CN1C=C(C(=O)CC)C(C)(C)CC1 (centres unmarked) [Compound 8, 1-(2-Ethylhexyl)-3-propionyl-4,4-dimethyl-1,4,5,6-tetrahydropyridine] |
| 100 | 5.8 | CCCCCCCC(=O)C1=CN(CC(C)C)CCC1(C)C [Compound 5, 1-(2-Methylpropyl) -3-octanoyl-4,4-dimethyl-1,4,5,6-tetrahydropyridine] |
| 87 | 6.9 | CCCCC(CC)COC(=O)CCC(=O)C1=CN(CC)CCC1(C)C (centres unmarked) [Compound 13, 1-Ethyl-3(2-ethyl-hexylsuccinoyl)--4,4-dimethyl-1,4,5,6-tetrahydropyridine] |
| 77 | 8.9 | CCCCCCCCCCCCCCCC(=O)C1=CN(CC)CCC1(C)C [Compound 10, 1-Ethyl-3-palmitoyl--4,4-dimethyl-1,4,5,6-tetrahydropyridine] |
| 100 | 5.8 | CCCCCCCCCC(=O)C1=CN(CC)CCC1(C)C [Compound 9, I-Ethyl-3-decanoyl--4,4-dimethyl-1,4,5,6-tetrahydropyridine] |
| 95 | 6.3 | CCCCCCCCCCN1C=C(C(=O)CC)C(C)(C)CC1 [Compound 18, 1-Decyl-3-propionyl--4,4-dimethyl-1,4,5,6-tetrahydropyridine] |
| 110 | 4.8 | CCCCCCCC(=O)C1=CN(CC)CCC1(C)C [Compound 7, 1-Ethyl-3-octanoyl--4,4-dimethyl-1,4,5,6-tetrahydropyridine] |
| 95 | 6.3 | CCCCCCCCCCCC(=O)C1=CN(C)CCC1(C)C [Compound 17, 1-Methyl-3-lauroyl--4,4-dimethyl 4,5,6-tetrahydropyridine] |
| 124 | 3.7 | CCCC(=O)C1=CN(CC(C)C)CCC1(C)C [Compound 3, 1-(2-Methylpropyl) -3-butyryl-4,4-dimethyl-1,4,5,6-tetrahydropyridine] |
| 140 | 2.7 | CC(=O)C1=CN(CC(C)C)CCC1(C)C [Compound 2, I-(2-Methylpropyl) -3-acetyl-4,4-dimethyl-1,4,5,6-tetrahydropyridine] |
| 112 | 3 | CC(C)CN1C=C(C(=O)C(F)(F)F)C(C)(C)CC1 [Compound 4, 1-(2-Methylpropyl) -3-trifluoroacetyl-4,4-dimethyl-1,4,5,6-tetrahydropyridine] |
| 87 | 7.4 | CCCCCCCCCCCCCC(=O)C1=CN(C)CCC1(C)C [Compound 11, 1-Methyl-3-myristoyl-4,4-dimethyl-1,4,5,6-tetrahydropyridine] |
| 131 | 9.4 | CC(C)CN1C=C(C(=O)CCCCC(=O)C2=CN(CC(C)C)CCC2(C)C)C(C)(C)CC1 [Compound 24] |
| 75 | 9.4 | CCCCCCCCCCCCCCCCN1C=C(C(=O)CC)C(C)(C)CC1 [Compound 6, 1-Palmityl-3-propionyl-4,4-dimethyl-1,4,5,6-tetrahydropyridine] |
| 100 | 5.8 | CCCCCCCC(=O)C1=CN(C(C)(C)C)CCC1(C)C [Compound 21, 1-(1,1-Dimethyl-ethyl)-3-octanoyl-4,4-dimethyl-1,4,5,6-tetrahydropyridine] |
| 131 | 3.2 | CCC(=O)C1=CN(CC(C)C)CCC1(C)C [Compound 1, I-(2-Methylpropyl)-3-propionyl-4,4-dimethyl-1,4,5,6-tetrahydropyridine] |
|  | 6.3 | CCCCCCCCCC(=O)C1=CN(C(C)C)CCC1(C)C [Compound 15, 1-(-Methylethyl)-3 decanoyl--4,4-dimethyl-1,4,5,6-tetrahydropyridine] |
| 110 | 4.8 | CCCCCC(=O)C1=CN(C(C)(C)C)CCC1(C)C [Compound 22, 1-(1,1-Dimethyl-ethyl) -3-hexanoyl-4,4-dimethyl-1,4,5,6-tetrahydropyridine] |
| 87 | 7.4 | CCCCCCCC(=O)C1=CN(CCCCCCC)CCC1(C)C [Compound 12, 1-Heptyl-3-octanoyl-4,4-dimethyl--1,4,5,6-tetrahydropyridine] |
| 91 | 6.9 | CCCCCCCC(=O)C1=CN(C2CCCCC2)CCC1(C)C [Compound 19, 1-Cyclohexyl-3-octanoyl-4,4-dimethyl-1,4,5,6-tetrahydropyridine] |
| 95 | 6.3 | CCCCCCCCCC(=O)C1=CN(CCC)CCC1(C)C [Compound 14, 1-Propyl-3-decanoyl-4,4-dimethyl-1,4,5,6-tetrahydropyridine] |
